Our source for the EC50 values is patent publication US6750348B1, “Chemokine receptor binding heterocyclic compounds” (AnorMED, Inc., priority 1999, dated 2004).

For the test, the system named is HIV-1 NL4.3 or IIIB. Briefly: Inhibition of HIV-1 (NL4.3 or IIIB) replication in MT-4 cells (MTT). The test is classed as cell-based. The settings on record: Human immunodeficiency virus 1, IIIB. As to the method: Compounds were tested for their ability to inhibit HIV-1 replication in MT-4 cells or PBMC's (peripheral blood mononucleocytes) using published procedures (for example, see: Labrosse et al. J. Virol. 1998, 6381-6388; Simmons et al. J. Virol. 1998, 8453-8457; Donzella et al. Nature Medicine 1998, 72-77; Schols et al. J. Exp. Med. 1997, 1383-1388; De Clercq et al. Antiviral Res. 1997, 147-156; and Bridger et al. U.S. patent application Ser. No. 09/111,895). In addition to the above references, experimental methods for performing anti-viral assays can also be found in: Bridger et al. J. Med. Chem. 1995, 38, 366-378; Bridger et al. J. Med. Chem. 1996, 39, 109-119; Bridger et al. U.S. Pat. No. 5,698,546; Bridger et al. U.S. Pat. No. 5,583,131; Bridger et al. U.S. Pat. No. 5,817,807; De Clercq et al. Antimicrob. Agents and Chemother. 1994, 38, 668-674.
1. The HIV-1 strains NL4.3 and IIIB are T-tropic strains that exclusively use CXCR4 as the co-receptor for entry into cells. MT-4 Cells express CXCR4 but not CCR5.
Inhibition of HIV-1 NL4.3 (or IIIB) replication assays were performed as previously described (Bridger et al. J. Med. Chem. 1999, 42, 3971-3981; De Clercq et al. Proc. Natl. Acad. Sci, 1992, 89, 5286-5290; De Clercq et al. Antimicrob. Agents Chemother. 1994, 38, 668-674; Bridger et al. J. Med. Chem. 1995, 38, 366-378). Anti-HIV activity and cytotoxicity measurements were carried out in parallel. They were based on the viability of MT-4 cells that had been infected with HIV in the presence of various concentrations of the test compounds. After the MT-4 cells were allowed to proliferate for 5 days, the number of viable cells was quantified by a tetrazolium-based calorimetric 3-(4,5-dimethylthiazol-2-yl)-2,5-diphenyltetrazolium bromide (MTT) procedure in 96-well microtrays. In all of these assays, viral input (viral multiplicity of infection, MOI) was 0.01, or 100 times the 50% cell culture infective dose (CCID50). The EC50 was defined as the concentration required to protect 50% of the virus-infected cells against viral cytopathicity.

[1] abbreviates: MT4, read-out: EC50, inhibition of HIV-1 NLA.3 or IIIB replication.
The mark [2] stands for this setting: MT4, read-out: EC50, inhibition of HIV-1 NL4.3 or IIIB replication.

Each structure is given as a SMILES string. Like-named read-outs stand apart in the source and are kept apart here.

On to `c1ccc(CNCc2ccc(CN(Cc3cccnc3)C3CCCc4cccnc43)cc2)nc1` (centres unmarked) [Example 141, N-(3-pyridinylmethyl)-N′-(2-pyridinylmethyl)-N-(5,6,7,8-tetrahydro-8-quinolinyl)-1,4-benzenedimethanamine], for which the EC50 under setting [1] was < 20 µM.
With `CC(=O)Nc1ccc(CN(Cc2ccc(CNCc3ccccn3)cc2)C2CCCc3cccnc32)cc1` (centres unmarked) [Example 102, N-[(4-acetamidophenyl)methyl]-N′-(2-pyridinylmethyl)-N-(5,6,7,8-tetrahydro-8-quinolinyl)-1,4-benzenedimethanamine], the concentration for a half-maximal effect (EC50) under setting [1] was < 20 µM.
On to `c1ccc(CNCc2ccc(CNC3CCc4cccnc43)cc2)nc1` (centres unmarked) [Example 3, N-(2-pyridinylmethyl)-N′-(6,7-dihydro-5H-cyclopenta[b]pyridin-7-yl)-1,4-benzenedimethanamine], for which, under setting [2], the EC50 was < 20 µg/mL.
`CCCOc1ccc(CN(Cc2ccc(CNCc3ccccn3)cc2)C2CCCCc3cccnc32)cc1` (centres unmarked) [Example 116, N-[(4-propoxyphenyl)methyl]-N′-(2-pyridinylmethyl)-N-(6,7,8,9-tetrahydro-5H-cyclohepta[b]pyridin-9-yl)-1,4-benzenedimethanamine]: under setting [1], the EC50 was < 20 µM.
On the same count and under the same terms, for `c1ccc(CNCc2ccc(CN(Cc3ccc4ccccc4n3)C3CCCCc4cccnc43)cc2)nc1` (centres unmarked) [Example 158, N-(2-quinolylmethyl)-N′-(2-pyridinylmethyl)-N-(6,7,8,9-tetrahydro-5H-cyclohepta[b]pyridin-9-yl)-1,4-benzenedimethanamine] the value was < 20 µM.
For the molecule `c1ccc(CNCc2ccc(CNC3CCCc4cccnc43)cc2)nc1` (centres unmarked) [Example 2, N-(2-pyridinylmethyl)-N′-(5,6,7,8-tetrahydro-8-quinolinyl)-1,4-benzenedimethanamine], under setting [2], the EC50 is < 20 µg/mL.
As for `Cn1cccc1CN(Cc1ccc(CNCc2ccccn2)cc1)C1CCCc2cccnc21` (centres unmarked) [Example 138, N-(1-methylpyrrol-2-ylmethyl)-N′-(2-pyridinylmethyl)-N-(5,6,7,8-tetrahydro-8-quinolinyl)-1,4-benzenedimethanamine], the EC50 under setting [1] is < 20 µM.
On the same count and under the same terms, for `c1ccc(CNCc2ccc(CN(Cc3ccc4c(c3)OCO4)C3CCCc4cccnc43)cc2)nc1` (centres unmarked) [Example 112, N-[(3,4-methylenedioxyphenyl)methyl]-N′-(2-pyridinylmethyl)-N-(5,6,7,8-tetrahydro-8-quinolinyl)-1,4-benzenedimethanamine] the value was < 20 µM; for `FC(F)Oc1ccccc1CN(Cc1ccc(CNCc2ccccn2)cc1)C1CCCCc2cccnc21` (centres unmarked) [Example 126, N-[(2-difluoromethoxyphenyl)methyl]-N′-(2-pyridinylmethyl)-N-(6,7,8,9-tetrahydro-5H-cyclohepta[b]pyridin-9-yl)-1,4-benzenedimethanamine], < 20 µM; for `c1ccc(COc2ccc(CN(Cc3ccc(CNCc4ccccn4)cc3)C3CCCCc4cccnc43)cc2)cc1` (centres unmarked) [Example 105, N-[(4-benzyloxyphenyl)methyl]-N′-(2-pyridinylmethyl)-N-(6,7,8,9-tetrahydro-5H-cyclohepta[b]pyridin-9-yl)-1,4-benzenedimethanamine], < 20 µM.
The same measure, in the same setting: with `Oc1cccc2ccc(CN(Cc3ccc(CNCc4ccccn4)cc3)C3CCCCc4cccnc43)nc12` (centres unmarked) [Example 157, N-[(8-hydroxy)-2-quinolylmethyl]-N′-(2-pyridinylmethyl)-N-(6,7,8,9-tetrahydro-5H-cyclohepta[b]pyridin-9-yl)-1,4-benzenedimethanamine] the figure was < 20 µM.
On the same count and under the same terms, with `Cn1c(CN(Cc2ccc(CNCc3ccccn3)cc2)C2CCCc3cccnc32)nc2ccccc21` (centres unmarked) [Example 144, N-(1-methylbenzimidazol-2-ylmethyl)-N′-(2-pyridinylmethyl)-N-(5,6,7,8-tetrahydro-8-quinolinyl)-1,4-benzenedimethanamine] the figure was < 20 µM; with `COc1cc(CN(Cc2ccc(CNCc3ccccn3)cc2)C2CCCc3cccnc32)cc2c1OCO2` (centres unmarked) [Example 140, N-[(3-methoxy-4,5-methylenedioxyphenyl)methyl]-N′-(2-pyridinylmethyl)-N-(5,6,7,8-tetrahydro-8-quinolinyl)-1,4-benzenedimethanamine], < 20 µM.
As for `c1ccc(CNCc2ccc(CNC3CCCCc4cccnc43)cc2)nc1` (centres unmarked) [Example 1, N-(2-pyridinylmethyl)-N′-(6,7,8,9-tetrahydro-5H-cyclohepta[b]pyridin-9-yl)-1,4-benzenedimethanamine], the concentration for a half-maximal effect (EC50) under setting [2] was < 20 µg/mL.
Same read-out and setting: with `c1ccc(CCCN(Cc2ccc(CNCc3ccccn3)cc2)C2CCCc3cccnc32)cc1` (centres unmarked) [Example 70, N-(2-pyridinylmethyl)-N′-(3-phenylpropyl)-N′-(5,6,7,8-tetrahydro-8-quinolinyl)-1,4-benzenedimethanamine] the figure was < 20 µg/mL.
Turning to `Oc1ccccc1CN(Cc1ccc(CNCc2ccccn2)cc1)C1CCCc2cccnc21` (centres unmarked) [Example 139, N-[(2-hydroxyphenyl)methyl]-N′-(2-pyridinylmethyl)-N-(5,6,7,8-tetrahydro-8-quinolinyl)-1,4-benzenedimethanamine], the EC50 under setting [1] is < 20 µM.
In the case of `Fc1cccc(F)c1CN(Cc1ccc(CNCc2ccccn2)cc1)C1CCCCc2cccnc21` (centres unmarked) [Example 124, N-[(2,6-difluorophenyl)methyl]-N′-(2-pyridinylmethyl)-N-(6,7,8,9-tetrahydro-5H-cyclohepta[b]pyridin-9-yl)-1,4-benzenedimethanamine], the EC50 under setting [1] is < 20 µM.
As for `N#Cc1cccc(CN(Cc2ccc(CNCc3ccccn3)cc2)C2CCCc3cccnc32)c1` (centres unmarked) [Example 121, N-[(3-cyanophenyl)methyl]-N′-(2-pyridinylmethyl)-N-(5,6,7,8-tetrahydro-8-quinolinyl)-1,4-benzenedimethanamine], the 50% effective concentration (EC50) under setting [1] is < 20 µM.
As for `c1ccc(CNCc2ccc(CN(Cc3cccnc3)C3CCCCc4cccnc43)cc2)nc1` (centres unmarked) [Example 113, N-(3-pyridinylmethyl)-N′-(2-pyridinylmethyl)-N-(6,7,8,9-tetrahydro-5H-cyclohepta[b]pyridin-9-yl)-1,4-benzenedimethanamine], the EC50 under setting [1] was < 20 µM.
On to `COc1cc(CN(Cc2ccc(CNCc3ccccn3)cc2)C2CCCCc3cccnc32)cc2c1OCO2` (centres unmarked) [Example 119, N-[(3-methoxy-4,5-methylenedioxyphenyl)methyl]-N′-(2-pyridinylmethyl)-N-(6,7,8,9-tetrahydro-5H-cyclohepta[b]pyridin-9-yl)-1,4-benzenedimethanamine], for which the EC50 under setting [1] was < 20 µM.
`c1ccc(CCN(Cc2ccc(CNCc3ccccn3)cc2)C2CCCc3cccnc32)cc1` (centres unmarked) [Example 69, N-(2-pyridinylmethyl)-N′-(2-phenylethyl)-N′-(5,6,7,8-tetrahydro-8-quinolinyl)-1,4-benzenedimethanamine]: the EC50 under setting [2] was < 20 µg/mL.
Turning to `Fc1cccc(F)c1CN(Cc1ccc(CNCc2ccccn2)cc1)C1CCCc2cccnc21` (centres unmarked) [Example 125, N-[(2,6-difluorophenyl)methyl]-N′-(2-pyridinylmethyl)-N-(5,6,7,8-tetrahydro-8-quinolinyl)-1,4-benzenedimethanamine], the EC50 under setting [1] is < 20 µM.
Take `c1ccc(Oc2ccc(CN(Cc3ccc(CNCc4ccccn4)cc3)C3CCCCc4cccnc43)cc2)cc1` (centres unmarked) [Example 103, N-[(4-phenoxyphenyl)methyl]-N′-(2-pyridinylmethyl)-N-(6,7,8,9-tetrahydro-5H-cyclohepta[b]pyridin-9-yl)-1,4-benzenedimethanamine]: the EC50 under setting [1] was < 20 µM.
Consider `Fc1ccc(CN(Cc2ccc(CNCc3ccccn3)cc2)C2CCCc3cccnc32)c(F)c1` (centres unmarked) [Example 137, N-[(2,4-difluorophenyl)methyl]-N′-(2-pyridinylmethyl)-N-(5,6,7,8-tetrahydro-8-quinolinyl)-1,4-benzenedimethanamine], for which the EC50 under setting [1] is < 20 µM.
Turning to `c1ccc(CNCc2ccc(CNC3CCCc4ccccc43)cc2)nc1` (centres unmarked) [Example 4, N-(2-pyridinylmethyl)-N′-(1,2,3,4-tetrahydro-1-naphthalenyl)-1,4-benzenedimethanamine], the concentration for a half-maximal effect (EC50) under setting [2] is < 20 µg/mL.
On the same count and under the same terms, for `c1ccc(CNCc2ccc(CN(Cc3nc4ccccc4[nH]3)C3CCCc4cccnc43)cc2)nc1` (centres unmarked) [Example 61, N-(2-pyridinylmethyl)-N′-(1H-benzimidazol-2-ylmethyl)-N′-(5,6,7,8-tetrahydro-8-quinolinyl)-1,4-benzenedimethanamine] the value was < 20 µg/mL.
